Here are results for two molecules from patent publication US20220323433A2, “CLINICAL REGIMEN FOR TREATING MYELODYSPLASTIC SYNDROME WITH PHOSPHATASE INHIBITOR” (H. Lee Moffitt Cancer Center and Research Institute, Inc., priority 2016, published 2022).

Structures are written as SMILES. Where two headings read alike, the source gives them in different places.

In one data set the test system is male Fischer rats. In words: Non-GLP dose ranging toxicology study in rats, daily IV infusion for 4 days. Particulars: for MTD: male Fischer rats, IV daily for 4 days. How it is done:
In a non-GLP dose ranging study in male Fischer rats, LB-100 was administered by daily intravenous (IV) infusion at 0.5, 0.75 and 1.5 mg/kg/day for 4 consecutive days.

A further data set deals with beagle dogs. In words: Non-GLP dose ranging study in dogs, IV every 4 days x 4 doses. It is filed as in vivo, dog. The text has this:
Single cell necrosis was observed throughout the gastrointestinal tract.

The test system of data set [1] is male and female beagle dogs. How it is done: In the GLP repeat dose dog study, LB-100 was administered by intravenous injection (slow bolus push) at dose levels of 0.15, 0.30, and 0.75 mg/kg daily for 5 consecutive days. […] The dosage level was reduced to 0.50 mg/kg/day for the 4th and 5th doses (study Days 3 and 4).
Multilead (I, II, III, aVR, aVL, aVF, and V2) ECGs were recorded for all animals prior to randomization (Day−8) and for all surviving animals on Day 4 (recorded approximately 2 to 4 hours following dose administration) and Day 27.
Blood pressure (systolic, diastolic, and mean arterial pressure) data were recorded for all animals once during the pretest period (Day−8) and for all surviving animals on study Day 4 (recorded approximately 2 to 4 hours following dose administration) and Day 27.

A short description of data set [2]: Solubility and stability of LB-100 solution. The note with it: for stability: formulated in monosodium glutamate. It is filed as physicochemical. An excerpt: LB-100 is a water soluble enantiomeric zwitterion provided as a sterile solution for intravenous administration.
Phosphate buffered saline (PBS) was used as the vehicle for LB-100 administration in preclinical efficacy studies and sodium bicarbonate 4.2% for injection was used as the vehicle for GLP toxicity studies.

Another data set concerns solid tumors. The note with it: human, in vivo.
The subject of data set [3] is male and female Sprague Dawley rats. In words: GLP repeat-dose study in rats, daily IV slow bolus for 5 days. The note with it: for C0 / AUClast: 0.75 mg/kg/day.
The next data set relates to del(5q) MDS. The note with it: cited from earlier work; for median overall survival: long term follow up.
The next data set has as its system del(5q) clones. The note with it: del(5q) patients; cited from earlier work.
Where [4] appears, read: MDS-003 multicenter Phase 2 trial.

In the case of `CN1CCN(C(=O)C2C(C(=O)O)[C@H]3CC[C@@H]2O3)CC1` (mixture of isomers) [LB-100, 3-{4methylpiperazine-carbonyl}-7-oxalobicyclo[2.2.1]heptane-2-carboxylic acid], the nephrosis severity result in the data set with male Fischer rats (0.75 mg/kg/day) is reported as “mild”. Moreover, in the data set with male Fischer rats (0.5, 0.75 and 1.5 mg/kg/day IV for 4 days), the “no-observed-adverse-effect-level (NOAEL)” value was “not established”. The heart toxicity entry in the data set on male Fischer rats (0.75 and 1.5 mg/kg/day groups) was “epicardial hyperplasia with inflammation primarily on the epicardium of the atria”. Moreover, the unscheduled deaths result in the data set on male Fischer rats (any of the treatment groups (0.5, 0.75, 1.5 mg/kg/day)) was “no unscheduled deaths”. The molecule further returned an MTD in the data set on male Fischer rats of 0.75 mg/kg/day. The MTD entry in the data set with male Fischer rats (surface area equivalent) is given as “about 4.5 mg/m^2”. For the same molecule, the dose-limiting toxicities result in the data set with male Fischer rats (rat, in vivo, iv) is “Kidney, heart, femoral bone, liver and urinary bladder toxicity”. In the data set on beagle dogs (0.1, 0.25, 0.5, 1.0 mg/kg), the survival result is listed as “no LB-100-related effects on survival”. Besides, the “no observed-effect level (NOEL)” value in the data set on beagle dogs (beagle dogs, IV every 4 days x 4 doses) is 0.25 mg/kg. In addition, in the data set with beagle dogs (dog, in vivo, 1 mg/kg), the signs of toxicity result is “almost no signs of toxicity”. Further, in data set [1] (0.15 mg/kg/day), the tolerability result is given as “well tolerated”. Moreover, in data set [1] (0.75 mg/kg/day group, prior to fourth dose), the test article-related lethality is 2 of 10. For the same molecule, in data set [1] (beagle dogs, IV daily for 5 consecutive days), the “Highest Non-Severely Toxic Dose (HNSTD)” value is 0.15 mg/kg. For the same molecule, in data set [1] (dog, in vivo), the ECGs result is “within normal limits”, the blood pressure result is reported as “unaffected”, the “hematology or coagulation parameters” value is recorded as “no residual effects” and the urinalysis parameters entry is “no test article-related changes”. Also, the water solubility entry in data set [2] is on record as “water soluble”. Further, the stability entry in data set [2] (pH 10.5, at refrigerated temperatures) is reported as “at least 8 hours”. In data set [2] (pH 10.5, at −20° C.), the stability result is given as “stable for months”. For the same molecule, in data set [2] (in solution), the “racemization of separated enantiomers” value was “racemize rapidly in solution”. Also, in the data set on solid tumors, the “cardiac or myelosuppressive toxicities” value is “no cardiac or myelosuppressive toxicities observed”, the dose limiting toxicities result is “no dose limiting toxicities”, the “plasma concentrations of LB-100” value is “greater than 1 μM” and the tolerability entry is on record as “well tolerated”. The C0 in data set [3] (females, study Day 4) turned out to be 2347 ng/mL. In data set [3] (males, study Day 4), this molecule showed an AUClast of 596 ng·h/mL and a C0 of 1804 ng/mL. Besides, the “heart findings (epicardium and subepicardium of the atrium)” value in data set [3] (0.5, 0.75, 1.25 mg/kg/day males and 1.25 mg/kg/day females) is “Minimal to mild subacute inflammation”. In addition, the kidney findings entry in data set [3] (0.75 and 1.25 mg/kg/day group males and females) is on record as “adverse, test article-related nephrosis of the kidneys”. The “severely toxic dose in 10% of the animals (STD 10)” value in data set [3] (Sprague Dawley rats, IV slow bolus daily for 5 days) amounted to 0.75 mg/kg/day. Further, in data set [3] (all treatment groups), the “reversibility of effects on urinalysis parameters” value is reported as “reversible”. The AUClast in data set [3] (female, Sprague Dawley, rat, in vivo, iv) was 691 ng·h/mL.

For `Nc1cccc2c1CN(C1CCC(=O)NC1=O)C2=O` (stereo not shown) [lenalidomide], the “patients achieving a complete response (CR)” value in the data set on del(5q) MDS (MDS-003, cytogenetic response) is 45%. Besides, in the data set with del(5q) MDS (MDS-003), the “patients with at least a partial cytogenetic response” value is 73%. Moreover, in the data set with del(5q) MDS (setting [4]), the “median TI duration” value is recorded as 2.2 years. Moreover, in the data set on del(5q) MDS (setting [4]), the “patients achieved transfusion independence (TI)” value is 67%. Also, in the data set with del(5q) MDS (after 2-3 years of treatment), the “patients who develop resistance” value is reported as “approximately 50%”. Besides, the median overall survival is listed as 3.1 years in the data set with del(5q) MDS (cytogenetic non-responders), 4.9 years in the data set with del(5q) MDS (cytogenetic responders), 2 years in the data set on del(5q) MDS (non-responders (TI)) and 4.3 years in the data set with del(5q) MDS (patients who reached TI). Besides, the “median duration of TI” value in the data set on del(5q) MDS (patients with PP2Acα suppression from baseline, not reached) is listed as ≥ 1507 days; with del(5q) MDS (patients without PP2Acα suppression (P=0.006, log rank)), 679 days. Moreover, the “median duration of responses” value in the data set on del(5q) MDS (patients with del5q MDS) is on record as 2.5 years. Also, the “apoptosis and cell cycle arrest” value with del(5q) clones is “induces apoptosis and cell cycle arrest”.
